In patent US9877981B2, “NAD biosynthesis and precursors for the treatment and prevention of cancer and proliferation” (President and Fellows of Harvard College, priority 2012, dated 2018):

How the values were obtained:
[1] = test system: skeletal muscle mitochondria; assay: Mitochondrial function in skeletal muscle of treated mice (membrane potential, ATP content, COX activity); assay type: in vivo
Protocol: C57BL/6J mice of 3, 6, 22, 24, or 30 months of age were obtained from the National Institutes of Aging mouse aging colony. Mice were acclimated for at least one-week prior to sacrifice. 3, and 24-month-old mice were given interperitoneal (IP) injections of 500 mg NMN/kg body weight per day or the equivalent volume of PBS for 7 consecutive days at 5:00 pm and 7:00 am on day 8 and sacrificed 4 hr after last injection. All animal studies followed the guidelines of and were approved by the Harvard Institutional Animal Care and Use Committee
Skeletal muscle mitochondria were isolated as described previously (Frezza et al., Nat. Protoc. 2:287-295 (2007)). Mitochondrial membrane potential, cytochrome c activity and succinate dehydrogenase were determined as described (Brautigan et al., Methods Enzymol. 53:128-164 (1978); Rolo et al., Biochim. Biophys. Acta. 1637:127-132 ([…]); Singer, T. P., Methods Biochem. Anal. 22:123-175 (1974)). ATP content was measured with a commercial kit according to the manufacturer's instructions (Roche).
(§1) C57BL/6J mice of 6, 22, or 30 months of age were obtained from the National Institutes of Aging mouse aging colony. Additionally 22 months old caloric restricted mice were also obtained from the National Institutes of Aging mouse aging colony. EGLN1 KO, SIRT1 KO and SIRT1 OE mice were generated as previously described (Minamishima et al., 2008; Price et al., 2012). Mice were acclimated for at least one-week prior to sacrifice. 3, 6, 22 and 24-month-old mice were given interperitoneal (IP) injections of 500 mg NMN/kg body weight per day or the equivalent volume of PBS for 7 consecutive days at 5:00 pm and 7:00 am on day 8 and sacrificed 4 hr after last injection.
Whole body SIRT1 overexpressor (SIRT1-tg) mice of 6 months of age were given interperitoneal (IP) injections of 300 mg DMOG/kg body weight per day or the equivalent volume of PBS for 5 consecutive days.
Whole body adult-inducible Egln1 knockout mice (Minamishima et al, 2007) were treated with IP injection of tamoxifen for 3 days after which they were allowed to rest. The mice were given interperitoneal (IP) injections of 500 mg NMN/kg body weight per day or the equivalent volume of PBS for 7 consecutive days at 5:00 pm and 7:00 am on day 8 and sacrificed 4 hr after last injection. All animal studies followed the guidelines of and were approved by the Harvard Institutional Animal Care and Use Committee.
Cytochrome c oxidase activity was polarographically determined based on the O2 consumption upon cytochrome c oxidation, as previously described (Brautigan et al., 1978). The reaction was carried out at 25° C. in 1.3 mL of standard respiratory medium (as in mitochondrial respiration) supplemented with 2 μM rotenone, 10 μM oxidized cytochrome c, 0.3 mg TritonX-100. Following addition of the sample, the reaction was initiated by adding 5 mM ascorbate plus 0.25 mM tetramethylphenylene-diamine (TMPD).
ATP content was measured with a commercial kit according to the manufacturer's instructions (Roche).

[2] = test system: VHL; assay: Immunoblot for VHL in gastrocnemius of treated mice; assay type: in vivo; details: 6- and 22-month-old mice, NMN one week
Source text: as §1
C57BL/6J mice of 3, 6, 22, or 24 months of age were obtained from the National Institutes of Aging mouse aging colony. […]
(§2) Protein extracts from tissue were obtained by lysis in ice-cold lysis buffer (150 mM NaCl, 10 mM Tris HCl (pH 7.4), 1 mM EDTA, 1 mM EGTA, 1% Triton X-100, 0.5% NP-40) supplemented with a cocktail of protease and phosphatase inhibitors (Roche). Protein content was determined by the Bradford protein assay (Biorad), and 50 μg proteins were run on SDS-PAGE under reducing conditions. […] The immunostaining was detected using horseradish peroxidase-conjugated anti-rabbit or anti-mouse immunoglobulin for 1 h at room temperature.

[3] = test system: Atrogin-1 and MuRF1; assay: Immunoblot for muscle wasting markers in gastrocnemius of treated mice; assay type: in vivo; details: old (22-month) mice; NMN one week; skeletal muscle
Source text: as §1
as §2, with “tissue or C2C12 cells” for “tissue”, “conditions. The separated proteins were then electrophoretically transferred to a polyvinylidene difluoride membrane (Perkin-Elmer).” for “conditions.”

[4] = test system: HIF-1α; assay: Immunoblot of HIF-1α in PGC-1α/β KO myotubes; assay type: cell-based, mouse; details: PGC-1α/β knockout myotubes treated with DMOG
Protocol: Primary myoblasts cells were isolated from WT, SIRT1 KO (Price et al., 2012) and PGC-1α/β KO (Zechner et al., 2010) mice as previously described (Price et al., 2012). WT and PGC-1α/β KO primary myoblasts were plated and allowed to differentiate into myotubes by replacing the media with low glucose DMEM supplemented with 2% horse serum (Sigma-Aldrich) for 4 days. After the differentiation the cells were infected with empty vector or flag-SIRT1 adenovirus as described before (Gerhart-Hines et al., 2007). Media was replaced with fresh DMEM supplemented with 2% horse serum (Sigma-Aldrich) for an additional 48 hr and, after that the cells were harvested for the different assays as described. […]
as §2, with “tissue or C2C12 cells” for “tissue”

[5] = treated 24-month-old mice, NMN 500 mg/kg IP one week, skeletal muscle

Row | Structure (SMILES) | ATP levels ([1]; 6- and 22-month-old mice, NMN one week, gastrocnemius) | ATP levels in skeletal muscle ([1]; Egln1 KO mice treated with NMN 500 mg/kg IP 7 days, compared to WT controls) | ability of NMN to improve mitochondrial function (membrane potential) ([1]; SIRT1 KO mice vs WT, NMN or PBS, skeletal muscle mitochondria) | COX activity ([1]; old mice, NMN one week, gastrocnemius (FIG. 24H)) | mitochondrial membrane potential ([1]; treated 24-month-old mice, NMN 500 mg/kg IP one week, isolated skeletal muscle mitochondria) | ATP levels [1, 5] | COX activity [1, 5] | VHL protein [2] | muscle wasting markers Atrogin-1 and MuRF1 [3] | increase in ATP levels observed in SIRT1-tg mice ([1]; SIRT1-tg mice, DMOG 300 mg/kg IP per day, 5 days, gastrocnemius) | HIF-1α protein [4]
1 | NC(=O)c1ccc[n+]([C@@H]2O[C@H](COP(=O)([O-])O)[C@@H](O)[C@H]2O)c1 [NMN, nicotinamide mononucleotide] | increase in ATP levels | did not restore | lost in animals lacking SIRT1 | increase | restoration of mitochondrial membrane potential to the levels of the young mice | increases in ATP levels | increases | reversed the age-induced decline in VHL | completely reversed these markers |  | 
2 | COC(=O)CNC(=O)C(=O)OC [DMOG, dimethyloxaloylglycine] |  |  |  |  |  |  |  |  |  | abolished | stabilizes HIF-1α protein
